Entries after “also recorded” stand apart in the source; their conditions may differ.
Assays:
Assay type in all cases: cell-based
MC3T3-E1 cells = assay: DNA quantification (cell number) of cells on peptide-coated Ti; details: 48 h culture on Ti coated with 50 μg/ml peptide, FIG. 9
Protocol: (§1) Under aseptic conditions, implants were immersed in a 3:7 (v/v) HNO3-DI water solution for 30 min at room temperature. Then, they were rinsed with milliQ water and placed in a covered milliQ water bath for 24 h. Implants were dried with N2 and were placed in a 96-well plates. Then, 200 μl of 50 μg/ml peptide solutions in PBS were added to each implant. Absorption took place for 24 h at 37° C. in a humidified atmosphere. After 24 h peptide solutions were collected and surfaces were washed with 200 μl of PBS and air-dried in order to perform cell experiments. The surfaces were denoted Ti (uncoated Ti), P1 (Ti coated with IP10-RGD), P2 (Ti coated with IP10mut-RGD), P3 (Ti coated with IP10-RGDmut) and P4 (Ti coated with IP10mut-RGDmu).
(§2) MC3T3-E1 cells were routinely cultured at 37° C. in a humidified atmosphere of 5% CO2, and maintained in α-minimum essential medium (α-MEM) supplemented with 10% fetal bovine serum (FBS) and antibiotics (50 IU penicillin/ml and 50 μg streptomycin/ml). 7.0×10^3 cells were seeded on the peptide-coated implants. Trypan blue stain was used to determine total and viable cell number. The same number of cells was cultured in parallel in plastic culture plates in the experiment. All experiments were performed after 15 passages of the MC3T3-E1 cells.
Culture media was removed from wells and plates were frozen at −80° C. until the experiment was carried out. At the day of analysis, 100 μl of distilled water were added to each well. Plates were incubated for 1 hour at room temperature. Again, plates were frozen at −80° C. to lysate cells. Plates were thawed until reaching room temperature and 100 μl of Hoechst 33258 at 20 μg/ml in THE buffer were added. Then, 200 μl aliquots were transferred to 96-well fluorescence plates and a spectrophotometer was set to record fluorescence. Relative fluorescence units were correlated with the cell number using a linear standard curve.

Integrin α8 (Itga8) = assay: Real-time RT-PCR gene expression in MC3T3-E1 cells on peptide-coated Ti; details: after 72 h of cell culture, FIG. 11
Protocol: as §1, with “Adsorption” for “Absorption”, “in vitro” for “cell”, “The surfaces were denoted Ti (uncoated Ti), P1 (Ti coated with IP10-RGD), P2 (Ti coated with IP10mut-RGD), P3 (Ti coated with IP10-RGDmut) and P4 (Ti coated with IP10mut-RGDmu).” left out
(§3) Total RNA was isolated using Tripure, according to the manufacturer's protocol. Total RNA was quantified at 260 nm using a Nanodrop spectrophotometer. […]
(§4) Each reaction contained 7 μl Lightcycler-FastStart DNA MasterPLUS SYBR Green I (containing Fast Start Taq polymerase, reaction buffer, dNTPs mix, SYBRGreen I dye and MgCl2), 0.5 μM of each, the sense and the antisense specific primers and 3 μl of the cDNA dilution in a final volume of 10 μl. […] After each cycle, fluorescence was measured at 72° C. […]
(§5) All samples were normalized by the geometric mean of the expression levels of 18S rRNA and Gapdh and fold changes were related to day 1 of culture using the mathematical model described by Pfaffl, A new mathematical model for relative quantification in real-time RT-PCR, Nucleic Acids Research 2001, 29: e45: […]

integrin β3 (Itgb3) = assay: as above; details: after 72 h of cell culture, FIG. 11
Protocol: as §1, with “Adsorption” for “Absorption”, “in vitro” for “cell”, “The surfaces were denoted Ti (uncoated Ti), P1 (Ti coated with IP10-RGD), P2 (Ti coated with IP10mut-RGD), P3 (Ti coated with IP10-RGDmut) and P4 (Ti coated with IP10mut-RGDmu).” left out
as §3, §4, §5

integrin β3 = assay: Immunocytochemistry of integrin β3 in MC3T3-E1 cells on peptide-coated Ti; details: after 72 h of culture, FIG. 12
Protocol: as §1, with “Adsorption” for “Absorption”, “in vitro” for “cell”, “experiments.” for “experiments. The surfaces were denoted Ti (uncoated Ti), P1 (Ti coated with IP10-RGD), P2 (Ti coated with IP10mut-RGD), P3 (Ti coated with IP10-RGDmut) and P4 (Ti coated with IP10mut-RGDmu).”
as §2, with “α-MEM” for “α-minimum essential medium (α-MEM)”, “FBS” for “fetal bovine serum (FBS)”, “4” for “15”
Cells grown for 24 and 72 h on the surfaces were fixed for 15 min with 4% formaldehyde in PBS at room temperature. Cells were incubated with 0.1% Triton X-100 for 5 min, 1% bovine serum albumin for 30 min and then with anti-integrin beta-3 antibody for 1 h at 1:50 dilution in PBS. Then, a Cy3-conjugated goat anti-rabbit IgG was used as secondary antibody for 1.5 h at 1:200 dilution in PBS. For actin cytoskeleton visualization, cells were stained with phalloidin-FITC 5 μg/mL in PBS for 30 min. Cells were washed with PBS and coin-shaped samples were placed on slides. Finally, a drop of Fluoroshield with DAPI was added and cover glasses were mounted on the samples. Two samples of each group were used to perform the experiment and two images of each sample were taken with the confocal microscope (Leica DMI 4000B equipped with Leica TCS SPE laser system).

MKKKGEGGGGGGGGRGDS (IP-10 derived peptide connected to RGD motif via poly-G-linker) [Peptide P1, surface P1 = Ti coated with it]
number of cells (DNA quantification) (MC3T3-E1 cells): highest number of cells
expression of Itga8 compared with uncoated surfaces (Integrin α8 (Itga8)): increased gene expression
expression of Itgb3 compared with uncoated surfaces (integrin β3 (Itgb3)): increased gene expression
integrin β3 staining (integrin β3): allowed integrin β3 visualization; also recorded: highest integrin β3 staining; also recorded: allowed specific anti-integrin β3 staining
